# Measurements published in paper PMC12668310, “High‐Throughput Synthesis and Screening of a Cyanimide Library Identifies Selective Inhibitors of ISG15‐Specific Protease mUSP18” (Angewandte Chemie (International Ed. in English), 2025).
# Target: T1, SENP1 (Homo sapiens, UniProt Q9P0U3)
# T1 sequence (Q9P0U3 419-644): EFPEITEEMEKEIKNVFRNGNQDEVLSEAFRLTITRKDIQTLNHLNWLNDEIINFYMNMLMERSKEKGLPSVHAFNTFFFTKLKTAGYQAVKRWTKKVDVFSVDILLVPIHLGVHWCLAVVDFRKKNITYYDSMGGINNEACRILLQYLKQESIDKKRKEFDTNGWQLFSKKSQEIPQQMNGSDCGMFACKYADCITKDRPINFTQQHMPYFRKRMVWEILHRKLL
# Experiment: High-throughput screening, single dose 1.25 µM
# Type: biochemical
# Details: crude in-plate synthesized compound, 1.25 µM assuming full conversion
# Procedure: (§1) Since the in‐plate synthesis was conducted in 1536‐well Echo plates, the compounds could readily be transferred from these plates into 1536‐well assay plates using acoustic liquid dispensing (Figure 2a) and subjected to HTS. We screened the whole 7536 compound library against a panel of twelve enzymes, including three DUBs from the UCH family, two DUBs from the OTU family, five DUBs from the USP family, plus ISG15 protease USP18, and SUMO protease SENP1. Each compound was tested at a single dose of 1.25 µM, assuming full conversion (10 mM in DMSO of the formed products) during the in‐plate synthesis, using the fluorogenic assay described above. […] The compounds are sorted by the amine building blocks (BB1‐16), and within each BB, sorted by carboxylic acid (CA1‐471), thereby providing a comprehensive and systematic overview of the overall inhibition by each BB and CA combination. Some interesting patterns can be obtained from this map. […] Indeed, BB10 is the privileged scaffold for UCHL1 as it originates from UCHL1 inhibitor 5 (Figure 1). […] On the other hand, OTUD1 and USP32 show a much higher hit rate, and this is even more pronounced for USP30 and ISG15 protease mUSP18, each showing many active compounds distributed over several BB's.
# (§2) Purified recombinant enzymes used in this study
# (§3) High-throughput screening
# (§4) The screens were performed at room temperature in “flat bottom, non-treated, black […]
# (§5) µM. The compounds (10 nL each) were transferred from the 1 mM daughter plates to the […]
# (§6) Four wells containing DMSO
# (§7) (10 nL) and four wells containing NEM (10 mM final concentration) were used in each plate […]
# (§8) solution (1.33x final concentration) was added to each well, followed by incubation for 30 min.
# (§9) Next, 2 µL of a substrate solution (4x final concentration) was added to each well (Ub-RhoMP[2]
# (§10) After 1h or 2h incubation the
# (§11) The percentage inhibition was calculated for each well using the […]
# (§12) Where FIx is the fluorescence intensity of each well, FIpos is the average fluorescence intensity of the positive (NEM) control wells, and FIneg is the average fluorescence intensity of the negative (DMSO) control wells.
row,SMILES,%inhibition SENP1 [%]
1,N#CN1CC[C@@H](NC(=O)c2nc(N3CCCC3)ncc2Cl)C1 [BB01CA90],16.6
2,N#CN1CC[C@@H](NC(=O)C(Cc2c[nH]cn2)NS(=O)(=O)c2ccc(Cl)cc2)C1 (stereo partly shown) [BB01CA91],13.2
3,N#CN1CC[C@@H](NC(=O)Cc2csc(-c3cnccn3)n2)C1 [BB01CA92],12.8
4,N#CN1CC[C@@H](NC(=O)CCN(Cc2ccccc2)S(=O)(=O)c2c(Cl)cccc2Cl)C1 [BB01CA93],8.6
5,N#CN1CC[C@@H](NC(=O)c2ncoc2-c2cccs2)C1 [BB01CA94],8.5

# Same assay, conditions: individual amine building block (plate NCN-5); read-out: BB %inhibition SENP1
row,SMILES,inhibition at 1.25 µM [%]
1,N#CN1CC[C@@H](N)C1 [BB1],1.3
2,N#CN1CCC(N)CC1 [BB2],-2.9
3,N#CN1CC[C@H](N)C1 [BB3],-1
4,N#CN1CC[C@H](C(=O)Nc2nc3c(s2)CNCC3)C1 [BB10],-5.4
5,N#CN1C[C@@H]2C[C@H]1CN2 [BB12],-9.2
6,N#CN1CCC2(CCNC2)C1 (stereo not shown) [BB14],8.7

# Other lines, results leading:
row,inhibition at 1.25 µM [%],SMILES
1,-2.1,N#CN1CCC[C@@H](N)C1 [BB4]
2,-5.2,N#CN1CC(N)C1 [BB5]
3,-9,N#CN1C[C@H]2C[C@@H](N)C[C@H]2C1 [BB6]
4,-11.7,N#CN1C[C@H]2C[C@H](N)C[C@H]2C1 [BB7]
5,0.5,N#CN1CCC[C@H](N)C1 [BB8]
6,-5,N#CN1CC[C@@H](NC(=O)c2ccc(CN)cc2)C1 [BB9]
7,-12.3,N#CN1CC[C@H](CN)C1 [BB11]
8,10.1,N#CN1C[C@H](N)[C@@H](O)C1 [BB13]
9,0.022,N#CN1C[C@@H](F)[C@@H](N)C1 [BB15]
10,4,N#CN1CCC(n2cc(N)cn2)CC1 [BB16]

# Target: T2, USP8 (Homo sapiens, UniProt P40818)
# T2 construct: (1-1118); purchased Ubiquigent 64-0053-050
# T2 sequence (P40818 1-1118): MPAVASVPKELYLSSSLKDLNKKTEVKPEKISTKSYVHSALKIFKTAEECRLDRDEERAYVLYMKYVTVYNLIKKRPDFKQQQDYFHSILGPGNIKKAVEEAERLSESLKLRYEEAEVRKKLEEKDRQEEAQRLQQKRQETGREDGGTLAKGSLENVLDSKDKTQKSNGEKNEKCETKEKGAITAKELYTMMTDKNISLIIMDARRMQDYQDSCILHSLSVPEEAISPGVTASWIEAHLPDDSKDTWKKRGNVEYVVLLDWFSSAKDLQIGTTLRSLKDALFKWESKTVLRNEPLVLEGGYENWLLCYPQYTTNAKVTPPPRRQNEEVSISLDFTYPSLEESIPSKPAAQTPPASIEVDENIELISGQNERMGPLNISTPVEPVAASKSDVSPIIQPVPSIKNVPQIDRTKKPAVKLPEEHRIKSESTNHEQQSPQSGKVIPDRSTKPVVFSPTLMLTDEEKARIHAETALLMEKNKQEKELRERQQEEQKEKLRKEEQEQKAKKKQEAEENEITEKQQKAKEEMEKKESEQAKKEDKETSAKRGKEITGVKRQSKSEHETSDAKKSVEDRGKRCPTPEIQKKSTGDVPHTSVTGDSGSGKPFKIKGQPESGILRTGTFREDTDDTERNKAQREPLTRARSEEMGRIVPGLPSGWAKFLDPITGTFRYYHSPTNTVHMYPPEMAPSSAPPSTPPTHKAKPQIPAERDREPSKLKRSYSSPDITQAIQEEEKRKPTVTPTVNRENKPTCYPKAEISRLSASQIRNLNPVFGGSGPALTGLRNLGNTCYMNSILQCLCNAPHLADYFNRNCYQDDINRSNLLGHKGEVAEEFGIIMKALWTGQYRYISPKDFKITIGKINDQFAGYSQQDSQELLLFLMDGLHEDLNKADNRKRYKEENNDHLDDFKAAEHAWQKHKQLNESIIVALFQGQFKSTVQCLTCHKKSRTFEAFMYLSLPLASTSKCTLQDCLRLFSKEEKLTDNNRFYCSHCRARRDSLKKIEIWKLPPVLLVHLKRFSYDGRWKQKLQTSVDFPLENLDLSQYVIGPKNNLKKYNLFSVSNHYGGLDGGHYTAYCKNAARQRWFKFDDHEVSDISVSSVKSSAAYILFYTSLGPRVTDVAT
# Experiment: High-throughput screening, Ub-RhoMP, single dose 1.25 µM
# Type: biochemical
# Details: crude in-plate synthesized compound, 1.25 µM assuming full conversion
# Procedure: as §1, §2, §3, §4, §5, §6, §7, §8, §9, §10, §11, §12
row,SMILES,%inhibition USP8 [%]
1,N#CN1CC[C@@H](NC(=O)c2nc(N3CCCC3)ncc2Cl)C1 [BB01CA90],29.2
2,N#CN1CC[C@@H](NC(=O)C(Cc2c[nH]cn2)NS(=O)(=O)c2ccc(Cl)cc2)C1 (stereo partly shown) [BB01CA91],28.4
3,N#CN1CC[C@@H](NC(=O)Cc2csc(-c3cnccn3)n2)C1 [BB01CA92],32.5
4,N#CN1CC[C@@H](NC(=O)CCN(Cc2ccccc2)S(=O)(=O)c2c(Cl)cccc2Cl)C1 [BB01CA93],33.0
5,N#CN1CC[C@@H](NC(=O)c2ncoc2-c2cccs2)C1 [BB01CA94],24.1

# Same assay, conditions: individual amine building block (plate NCN-5)
row,SMILES,BB %inhibition USP8 [%]
1,N#CN1CC[C@@H](N)C1 [BB1],9.1
2,N#CN1CCC(N)CC1 [BB2],1.0
3,N#CN1CC[C@H](N)C1 [BB3],3.6
4,N#CN1CC[C@H](C(=O)Nc2nc3c(s2)CNCC3)C1 [BB10],0.105
5,N#CN1C[C@@H]2C[C@H]1CN2 [BB12],-2.5
6,N#CN1CCC2(CCNC2)C1 (stereo not shown) [BB14],7.8

# The remaining lines, values ahead:
row,BB %inhibition USP8 [%],SMILES
1,5.3,N#CN1CCC[C@@H](N)C1 [BB4]
2,1.7,N#CN1CC(N)C1 [BB5]
3,-1.3,N#CN1C[C@H]2C[C@@H](N)C[C@H]2C1 [BB6]
4,-1.7,N#CN1C[C@H]2C[C@H](N)C[C@H]2C1 [BB7]
5,1.5,N#CN1CCC[C@H](N)C1 [BB8]
6,20.0,N#CN1CC[C@@H](NC(=O)c2ccc(CN)cc2)C1 [BB9]
7,-2.4,N#CN1CC[C@H](CN)C1 [BB11]
8,0.0,N#CN1C[C@H](N)[C@@H](O)C1 [BB13]
9,2.7,N#CN1C[C@@H](F)[C@@H](N)C1 [BB15]
10,-3.5,N#CN1CCC(n2cc(N)cn2)CC1 [BB16]

# Target: T3, mUSP18 (Mus musculus, UniProt Q9WTV6)
# T3 construct: (46-368); His-tag (N); made in house
# T3 sequence (Q9WTV6 46-368): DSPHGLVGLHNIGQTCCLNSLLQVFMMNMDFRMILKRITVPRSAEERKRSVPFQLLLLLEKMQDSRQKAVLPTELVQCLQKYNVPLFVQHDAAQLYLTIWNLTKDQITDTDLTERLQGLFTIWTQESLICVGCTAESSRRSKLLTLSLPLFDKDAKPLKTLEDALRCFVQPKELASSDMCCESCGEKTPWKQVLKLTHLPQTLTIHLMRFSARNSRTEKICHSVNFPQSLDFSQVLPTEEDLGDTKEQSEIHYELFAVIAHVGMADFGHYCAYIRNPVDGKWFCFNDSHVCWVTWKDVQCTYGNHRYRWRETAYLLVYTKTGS
# Experiment: High-throughput screening, ISG15ct-RhoMP, single dose 1.25 µM
# Type: biochemical, murine
# Details: crude in-plate synthesized compound, 1.25 µM assuming full conversion; read-out: %inhibition mUSP18
row,SMILES,inhibition at 1.25 µM [%]
1,N#CN1CC[C@@H](NC(=O)c2nc(N3CCCC3)ncc2Cl)C1 [BB01CA90],27.1
2,N#CN1CC[C@@H](NC(=O)C(Cc2c[nH]cn2)NS(=O)(=O)c2ccc(Cl)cc2)C1 (stereo partly shown) [BB01CA91],13.4
3,N#CN1CC[C@@H](NC(=O)Cc2csc(-c3cnccn3)n2)C1 [BB01CA92],24.6
4,N#CN1CC[C@@H](NC(=O)CCN(Cc2ccccc2)S(=O)(=O)c2c(Cl)cccc2Cl)C1 [BB01CA93],74.1
5,N#CN1CC[C@@H](NC(=O)c2ncoc2-c2cccs2)C1 [BB01CA94],24.1
6,Cc1cc(C(=O)N[C@H]2C[C@@H]3CN(C#N)C[C@@H]3C2)ccc1Br [BB07CA28],95

# Same assay, conditions: individual amine building block (plate NCN-5); read-out: BB %inhibition mUSP18
row,SMILES,inhibition at 1.25 µM [%]
1,N#CN1CC[C@@H](N)C1 [BB1],6.8
2,N#CN1CCC(N)CC1 [BB2],4.3
3,N#CN1CC[C@H](N)C1 [BB3],3.1
4,N#CN1CC[C@H](C(=O)Nc2nc3c(s2)CNCC3)C1 [BB10],0.154
5,N#CN1C[C@@H]2C[C@H]1CN2 [BB12],-0.7
6,N#CN1CCC2(CCNC2)C1 (stereo not shown) [BB14],-1

# Continued, values first:
row,inhibition at 1.25 µM [%],SMILES
1,3.9,N#CN1CCC[C@@H](N)C1 [BB4]
2,-0.216,N#CN1CC(N)C1 [BB5]
3,-0.535,N#CN1C[C@H]2C[C@@H](N)C[C@H]2C1 [BB6]
4,-3.9,N#CN1C[C@H]2C[C@H](N)C[C@H]2C1 [BB7]
5,-1.5,N#CN1CCC[C@H](N)C1 [BB8]
6,2,N#CN1CC[C@@H](NC(=O)c2ccc(CN)cc2)C1 [BB9]
7,-3.8,N#CN1CC[C@H](CN)C1 [BB11]
8,-0.9,N#CN1C[C@H](N)[C@@H](O)C1 [BB13]
9,-5.8,N#CN1C[C@@H](F)[C@@H](N)C1 [BB15]
10,-4.3,N#CN1CCC(n2cc(N)cn2)CC1 [BB16]
